Patent US12162840B2, “Herbicidal compositions” (SYNGENTA PARTICIPATIONS AG, priority 2018, dated 2024)

Assays:
Format in all cases: in vivo
[1] = tested on: Amaranthus retoflexus (AMARE); assay: B1 Post-emergence efficacy Test 1; conditions: post-emergence application, 1000 g/ha, evaluated after 13 days
Description: (§1) Seeds of a variety of test species are sown in standard soil in pots:—Solanum nigrum (SOLNI), Amaranthus retoflexus (AMARE), Setaria faberi (SETFA), Alopecurus myosuroides (ALOMY), Echinochloa crus-galli (ECHCG), Ipomoea hederacea (IPOHE), Lolium perenne (LOLPE). After 8 days cultivation (post-emergence) under controlled conditions in a glasshouse (at 24/16° C., day/night; 14 hours light; 65% humidity), the plants are sprayed with an aqueous spray solution derived from the formulation of the technical active ingredient in acetone/water (50:50) solution containing 0.5% Tween 20 (polyoxyethylene sorbitan monolaurate, CAS RN 9005-64-5). Compounds are applied at 1000 g/ha. The test plants are then grown in a glasshouse under controlled conditions in a glasshouse (at 24/16° C., day/night; 14 hours light; 65% humidity) and watered twice daily. After 13 days, the test is evaluated for the percentage damage caused to the plant. The biological activities are assessed on a five point scale (5=80-100%; 4=60-79%; 3=40-59%; 2=20-39%; 1=0-19%). A blank value in the table is indicative that the compound was not tested on that species.

[2] = tested on: Echinochloa crus-galli (ECHCG); assay: B1 Post-emergence efficacy Test 1; conditions: post-emergence application, 1000 g/ha, evaluated after 13 days
Description: as §1

[3] = tested on: Ipomoea hederacea (IPOHE); assay: B1 Post-emergence efficacy Test 1; conditions: post-emergence application, 1000 g/ha, evaluated after 13 days
Description: as §1

Lolium perenne (LOLPE) = assay: B1 Post-emergence efficacy Test 1; conditions: post-emergence application, 1000 g/ha, evaluated after 13 days
Description: as §1

Setaria faberi (SETFA) = assay: B1 Post-emergence efficacy Test 1; conditions: post-emergence application, 1000 g/ha, evaluated after 13 days
Description: as §1

Solanum nigrum (SOLNI) = assay: B1 Post-emergence efficacy Test 1; conditions: post-emergence application, 1000 g/ha, evaluated after 13 days
Description: as §1

[4] = tested on: warm season plant species; assay: B2 Post-emergence efficacy Test 2, warm season plant species; conditions: 15 days after application, 0-100 scale, 0=no damage, 100=total kill; for Herbicidal activity, ABUTH: Abutilon theophrasti; for Herbicidal activity, AMARE: Amaranthus retroflexus; for Herbicidal activity, BIDPI: Bidens pilosa; for Herbicidal activity, BRAPL: Brachiaria plantaginea; for Herbicidal activity, DIGSA: Digitaria sanguinalis; for Herbicidal activity, ECHCG: Echinochloa crus galli; for Herbicidal activity, ELEIN: Eleisine indica; for Herbicidal activity, EPHHL: Euphorbia hetrophylla; for Herbicidal activity, GLXMA: Glycine max; for Herbicidal activity, IPOHE: Ipomoea hederacea; for Herbicidal activity, ORYSA: Orysa sativa; for Herbicidal activity, PANMI: Panicum miliaceum; for Herbicidal activity, SETFA: Setaria faberi; for Herbicidal activity, SIDSP: Sida spinosa; for Herbicidal activity, SORVU: Sorghum bicolour; for Herbicidal activity, XANST: Xanthium strumarium; for Herbicidal activity, ZEAMX: Zea mays
Description: Seeds of a variety of test species (see Table B1) were sown in standard soil in pots. After cultivation for 12 days (post-emergence) under controlled conditions in a glasshouse (at 24/18° C. or 20/16° C., at day/night; 16 hours light; 65% humidity), the plants were sprayed with an aqueous spray solution derived from the formulation of the technical active ingredient dissolved in IF50 (see Table B2 for composition) and adjuvant (Genapol XO80) was added to the spray solution at a rate of 0.2% v/v. [table] [table] After application, the test plants were grown in a glasshouse under controlled conditions (as above) and watered twice daily. Herbicidal activity was evaluated 15 days after application on a 0-100 scale. The results, where 0=no damage to test plant and 100=total kill of test plant are shown below in Tables 6 to 9.

Cc1nn(C)c(=O)c(-c2c(F)ccc(Cl)c2CCc2ccccc2C(F)(F)F)c1O [Compound 1.066]
50: Herbicidal activity, ABUTH ([4]; 30 g/Ha) | Herbicidal activity, ABUTH ([4]; 60 g/Ha) | Herbicidal activity, BIDPI ([4]; 15 g/Ha) | Herbicidal activity, PANMI ([4]; 30 g/Ha)
20: Herbicidal activity, ABUTH ([4]; 15 g/Ha) | Herbicidal activity, DIGSA ([4]; 30 g/Ha) | Herbicidal activity, DIGSA ([4]; 60 g/Ha) | Herbicidal activity, ECHCG ([4]; 15 g/Ha) | Herbicidal activity, ELEIN ([4]; 30 g/Ha) | Herbicidal activity, GLXMA ([4]; 15 g/Ha) | Herbicidal activity, ORYSA ([4]; 250 g/Ha) | Herbicidal activity, SORVU ([4]; 30 g/Ha) | Herbicidal activity, ZEAMX ([4]; 30 g/Ha) | Herbicidal activity, ZEAMX ([4]; 60 g/Ha) | Herbicidal activity, ZEAMX ([4]; 125 g/Ha)
100: Herbicidal activity, ABUTH ([4]; 500 g/Ha) | Herbicidal activity, AMARE ([4]; 125 g/Ha) | Herbicidal activity, AMARE ([4]; 250 g/Ha) | Herbicidal activity, AMARE ([4]; 500 g/Ha) | Herbicidal activity, BRAPL ([4]; 500 g/Ha) | Herbicidal activity, EPHHL ([4]; 250 g/Ha) | Herbicidal activity, EPHHL ([4]; 500 g/Ha) | Herbicidal activity, IPOHE ([4]; 125 g/Ha) | Herbicidal activity, IPOHE ([4]; 250 g/Ha) | Herbicidal activity, IPOHE ([4]; 500 g/Ha) | Herbicidal activity, PANMI ([4]; 250 g/Ha) | Herbicidal activity, PANMI ([4]; 500 g/Ha) | Herbicidal activity, SIDSP ([4]; 500 g/Ha) | Herbicidal activity, SORVU ([4]; 500 g/Ha) | Herbicidal activity, XANST ([4]; 250 g/Ha) | Herbicidal activity, XANST ([4]; 500 g/Ha)
60: Herbicidal activity, BIDPI ([4]; 30 g/Ha) | Herbicidal activity, BRAPL ([4]; 30 g/Ha) | Herbicidal activity, EPHHL ([4]; 15 g/Ha) | Herbicidal activity, PANMI ([4]; 60 g/Ha) | Herbicidal activity, SORVU ([4]; 60 g/Ha)
70: Herbicidal activity, BIDPI ([4]; 60 g/Ha) | Herbicidal activity, BRAPL ([4]; 250 g/Ha) | Herbicidal activity, DIGSA ([4]; 250 g/Ha) | Herbicidal activity, DIGSA ([4]; 500 g/Ha) | Herbicidal activity, ELEIN ([4]; 60 g/Ha) | Herbicidal activity, ELEIN ([4]; 125 g/Ha) | Herbicidal activity, ELEIN ([4]; 250 g/Ha) | Herbicidal activity, EPHHL ([4]; 30 g/Ha) | Herbicidal activity, GLXMA ([4]; 60 g/Ha) | Herbicidal activity, GLXMA ([4]; 125 g/Ha) | Herbicidal activity, IPOHE ([4]; 15 g/Ha) | Herbicidal activity, SETFA ([4]; 30 g/Ha) | Herbicidal activity, SETFA ([4]; 60 g/Ha) | Herbicidal activity, ZEAMX ([4]; 500 g/Ha)
5 (5=80-100%): percentage damage caused to the plant, five point scale, AMARE [1] | percentage damage caused to the plant, five point scale, ECHCG [2] | percentage damage caused to the plant, five point scale, IPOHE [3] | percentage damage caused to the plant, five point scale, SETFA (Setaria faberi (SETFA)) | percentage damage caused to the plant, five point scale, SOLNI (Solanum nigrum (SOLNI))
4 (4=60-79%): percentage damage caused to the plant, five point scale, LOLPE (Lolium perenne (LOLPE))
0: Herbicidal activity, BRAPL ([4]; 15 g/Ha) | Herbicidal activity, DIGSA ([4]; 15 g/Ha) | Herbicidal activity, ELEIN ([4]; 15 g/Ha) | Herbicidal activity, ORYSA ([4]; 15 g/Ha) | Herbicidal activity, ORYSA ([4]; 30 g/Ha) | Herbicidal activity, ORYSA ([4]; 60 g/Ha) | Herbicidal activity, PANMI ([4]; 15 g/Ha) | Herbicidal activity, SETFA ([4]; 15 g/Ha) | Herbicidal activity, SORVU ([4]; 15 g/Ha) | Herbicidal activity, ZEAMX ([4]; 15 g/Ha)
30: Herbicidal activity, ZEAMX ([4]; 250 g/Ha)
10: Herbicidal activity, ORYSA ([4]; 125 g/Ha)
90: Herbicidal activity, ABUTH ([4]; 125 g/Ha) | Herbicidal activity, ABUTH ([4]; 250 g/Ha) | Herbicidal activity, AMARE ([4]; 15 g/Ha) | Herbicidal activity, AMARE ([4]; 30 g/Ha) | Herbicidal activity, AMARE ([4]; 60 g/Ha) | Herbicidal activity, BIDPI ([4]; 250 g/Ha) | Herbicidal activity, BIDPI ([4]; 500 g/Ha) | Herbicidal activity, ECHCG ([4]; 60 g/Ha) | Herbicidal activity, ECHCG ([4]; 125 g/Ha) | Herbicidal activity, ECHCG ([4]; 250 g/Ha) | Herbicidal activity, ECHCG ([4]; 500 g/Ha) | Herbicidal activity, EPHHL ([4]; 125 g/Ha) | Herbicidal activity, GLXMA ([4]; 250 g/Ha) | Herbicidal activity, GLXMA ([4]; 500 g/Ha) | Herbicidal activity, IPOHE ([4]; 30 g/Ha) | Herbicidal activity, IPOHE ([4]; 60 g/Ha) | Herbicidal activity, SETFA ([4]; 250 g/Ha) | Herbicidal activity, SETFA ([4]; 500 g/Ha) | Herbicidal activity, SIDSP ([4]; 125 g/Ha) | Herbicidal activity, SIDSP ([4]; 250 g/Ha) | Herbicidal activity, SORVU ([4]; 250 g/Ha) | Herbicidal activity, XANST ([4]; 60 g/Ha)
40: Herbicidal activity, DIGSA ([4]; 125 g/Ha) | Herbicidal activity, GLXMA ([4]; 30 g/Ha) | Herbicidal activity, ORYSA ([4]; 500 g/Ha) | Herbicidal activity, SIDSP ([4]; 15 g/Ha)
80: Herbicidal activity, BIDPI ([4]; 125 g/Ha) | Herbicidal activity, BRAPL ([4]; 125 g/Ha) | Herbicidal activity, ECHCG ([4]; 30 g/Ha) | Herbicidal activity, ELEIN ([4]; 500 g/Ha) | Herbicidal activity, EPHHL ([4]; 60 g/Ha) | Herbicidal activity, PANMI ([4]; 125 g/Ha) | Herbicidal activity, SETFA ([4]; 125 g/Ha) | Herbicidal activity, SIDSP ([4]; 30 g/Ha) | Herbicidal activity, SIDSP ([4]; 60 g/Ha) | Herbicidal activity, SORVU ([4]; 125 g/Ha)
